Test [1] relates to Ryr1^m1Nisw/m1Nisw E18.5 diaphragm muscle. Kind of test: EMG recordings / contractility of explanted E18.5 diaphragm muscle. In kind it is cell-based, mouse. The following applies: for Minutes to Contraction (Stand. Dev): EMG recordings, electrically stimulated; for Minutes to Contraction (Stand. Dev) / contractions / contractility (in words): PMA 50 nM, AICAR 500 μM; for Minutes to Contraction (Stand. Dev) / bath application time after which contractions were elicited / contractions / contractility (in words): Glibenclamide 2 μM, 5HA 200 μM; for bath application time after which contractions were elicited / explants showing contractions: n=6 for each; for explants showing contractions: after 1 hour bath application; for contractions / contractility (in words): bath application, KCl 6 mM, BaCl2 100 μM, potassium gluconate 6 mM, BayK8644 100 nM. On the procedure:
(§1) In other methods, whether increasing the excitability in E18.5 Ryr1^m1Nisw/m1Nisw whole diaphragm muscle could force the DHPR-RyR1 complex to initiate contractility was examined. In one exemplary method, electromyography recordings (EMG) was performed to examine whether whole muscle in vitro was sensitive to potassium-dependent depolarization by adding potassium to the bath to depolarize the membrane. […] Potassium induced excitability can also be triggered by blocking inward rectifier potassium channels.
(§2) DHPR and RyR1 interact through orthograde and retrograde signaling, but the Ryr1^m1Nisw/m1Nisw mutation is not located within this interaction region. Orthograde signaling from DHPR opens the RyR1 channel in the SR, while retrograde signaling from RyR1 controls the gating of DHPR.
(§3) FIG. 2g represents an exemplary graph of contractility of E18.5 diaphragm muscle from Ryr1^+/+, Ryr1^m1Nisw/m1Nisw, or RyR1^tm1Alle/tm1Alle embryos. After equilibration, all samples were bathed first in 6 mM KCl, followed by wash out and then addition of 100 μm BaCl as indicated. […] FIG. 2h provides an exemplary graph of contractility of E18.5 diaphragm muscle from Ryr1^+/+, Ryr1^m1Nisw/m1Nisw and RyR1^tm1Alle/tm1Alle embryos in 6 mM potassium gluconate (n=4).
(§4) In myotubes, the application of ryanodine at levels that activate RyR increases ERK1/2 protein levels and c-Fos and c-Jun transcript levels. ERK1/2 phosphorylates the most abundant potassium transport protein, Na^+, K^+-ATPase, which, in turn, induces an increase in ion transport. Na^+, K^+-ATPase is essential for maintaining the equilibrium potential of Na^+ and K^+ at the membrane. In one exemplary method, western blot was performed to analyze certain protein levels in Ryr1^m1Nisw/m1Nisw and Ryr1^tm1Alle/tm1Alle embryonic muscle extracts with beta-tubulin served as a loading control. […] In another exemplary method, Phorbol-12-myristate-13-acetate (PMA 50 nM), an activator of ERK1/2 phosphorylation, was applied to the bath of in vitro Ryr1^m1Nisw/m1Nisw diaphragm preparation to increase the phosphorylation of Na^+, K^+-ATPase.
(§5) In certain exemplary methods, restoration of membrane potential and muscle contractions by pharmacological stimulation was tested. First, effect of stimulation of AMPK activity on restoring the resting membrane potential of the mutant diaphragm muscle was determined. An AMPK activator, e.g. 5-aminoimidazole-4-carboxamide-1-β-d-ribofuranoside (AICAR, 500 μM), was bath applied to explanted Ryr1^m1Nisw/m1Nisw E18.5 diaphragm muscles. […] Next, other pharmacological stimuli were examined. […] Glibenclamide (2 μM) and 5-hydrodecanoic acid (5HA, 200 μM) selectively bind to SUR1 and SUR2 to block ATP-sensitive K^+ channels.

The test system of test [2] is Ryr1^m1Nisw/m1Nisw diaphragm muscle. Kind of test: Sharp electrode recordings of resting membrane potential of diaphragm muscle. In kind it is cell-based, mouse. The following applies: for resting membrane potential (in words): Glibenclamide 2 μM, AICAR 500 μM; for resting membrane potential (in words) / resting membrane potential after treatment: PMA 50 nM; for shift in membrane potential / resting membrane potential after treatment: sharp electrode; for shift in membrane potential: PMA 50 nM vs ethanol, AICAR 500 μM n=18; for resting membrane potential after treatment: BaCl2 n=27. On the procedure:
Therefore, in some exemplary methods, whether voltage dependent orthograde signaling through the DHPR-RyR1 complex could be initiated through changes in membrane potential was first assessed.
as §1, §4, §5

Test [3] has as its system Ryr1^tm1Alle/tm1Alle diaphragm muscle. Kind of test: Contractility of explanted E18.5 diaphragm muscle, Ryr1 null. The class given is cell-based, mouse. The following applies: same bath concentrations. The method, then:
as §1, §2, §3, §4, §5

In another test the test system is soleus muscle. Nature of the test: Steady-state membrane potential (VREST) of two month old soleus muscle at varied extracellular potassium. In kind it is cell-based, mouse. The following applies: for VREST after drug addition: control 0.6% potassium diet, independent of extracellular potassium.
For test [4], the system named is Ryr1^m1Nisw/+ mice. Kind of test: Grip strength test (vertical digital push-pull strain gauge). In kind it is in vivo, mouse. The following applies: 2 month old, four weeks of diet, Enalapril in water, or Glyburide 15 mg/kg/day oral gavage.
Test [5] deals with Ryr1^m1Nisw/+ vastus lateralis muscle. Nature of the test: Muscle histology (H&E central nuclei, COX staining) of vastus lateralis. In kind it is in vivo, mouse. The following applies: after four weeks treatment. The source says: CCD is diagnosed and subclassified by histopathological analysis using stains such as cytochrome oxidase (COX) and nicotinamide adenine dinucleotide hydride-tetrazolium reductase (NADH-TR) which highlight mitochondria and ATP synthesis, and hematoxylin and eosin stain (H&E) to mark nuclei. In normal muscle, nuclei are located at the periphery of the myofiber and the mitochondria reside throughout the myofiber. Muscle biopsies of CCD patients show centrally located nuclei, as well as disorganized areas in the center of the myofiber called cores that lack mitochondria and are devoid of metabolic activity; these occur in some but not all muscles and are reflective of cellular damage.
Pathological examination is the hallmark diagnosis of CCD. In one exemplary method, the effects of diet on muscle histology were studied. Centrally located nuclei and decreased mitochondrial activity were detected in Ryr1^m1Nisw/+ vastus lateralis muscle compared to Ryr1^+/+ muscle in low potassium and control diets (FIGS. 5c-5k). […] In addition, the CCD phenotype was also rescued by 5-hydrodecanoic acid (5HA), which blocks ATP-sensitive K^+ channels (FIG. 4 and Table 2). […]

Test [6] has as its system Ryr1^m1Nisw/+ mice. Nature of the test: Hanging wire task (upper body muscle strength). The class given is in vivo, mouse. The following applies: four weeks of diet, Enalapril in water, or Glyburide 15 mg/kg/day oral gavage.
[7] abbreviates: RyR1^m1Nisw/+ soleus muscle, bumetanide 75 μM, BaCl2 50 μM.
Where [8] appears, read: RyR1^m1Nisw/+ soleus muscle, bumetanide 75 μM, BaCl2 50 μM, Glibenclamide 2 μM, or chronic 5.2% potassium diet.
Where [9] appears, read: wild type muscle, low extracellular potassium / Tetanus, bumetanide 75 μM, BaCl2 50 μM, Glibenclamide 2 μM.

Entries after “also recorded” stand apart in the source; their conditions may differ. Read-outs that look alike come from different tables or passages of the source. Where only a bound is given, the exact number is not on record here.

The results in this text go back to US20130273181A1, “METHODS AND COMPOSITIONS FOR DIAGNOSING AND TREATING MUSCLE MYOPATHY DISORDERS” (The Regents of the University of Colorado, a body Corporate, priority 2012, published 2013).

As to `CCCCCC(O)CCCC(=O)O` (stereo not shown) [5HA, 5-hydrodecanoic acid], in test [1], the “Minutes to Contraction (Stand. Dev)” value is given as 106 (52) Minutes, the “bath application time after which contractions were elicited” value came to 2 h, the explants showing contractions is listed as 50% and the “contractions / contractility (in words)” value is “rescued”.

Regarding `NC(=O)c1ncn([C@@H]2O[C@H](CO)[C@@H](O)[C@H]2O)c1N` [AICAR, 5-aminoimidazole-4-carboxamide-1-β-d-ribofuranoside], in test [2], the “resting membrane potential (in words)” value is given as “restore the mutant resting membrane potential to normal levels” and the “shift in membrane potential” value was −10.4+/−3.9 mV. Also, in test [3], the “contractions / contractility (in words)” value was “unable to initiate contractions”. Besides, in test [1], the “Minutes to Contraction (Stand. Dev)” value is on record as “None” and the “contractions / contractility (in words)” value was “unable to initiate contractions”.

For `[Ba+2].[Cl-].[Cl-]` [BaCl2], the “VREST phase (in words)” value in the test on soleus muscle and in the test with soleus muscle (setting [8]) was “driven to phase 2” each time. Further, the “VREST after drug addition” value in the test with soleus muscle (setting [7]) is recorded as −91.7+/−3.8 mV. The “resting membrane potential after treatment” value in test [2] is listed as −68.5 mV. Also, the “contractions / contractility (in words)” value was “failed to contract” in test [3] (listed as BaCl); “induced stimulated bursts of activity and contractions” in test [1]; “rescued” in test [1] (listed as BaCl).

On to `COC(=O)C1=C(C)NC(C)=C([N+](=O)[O-])C1c1ccccc1C(F)(F)F` (stereo not shown) [BayK8644], for which the “contractions / contractility (in words)” value is “no contractions occurred” in test [3] and “induced contractions within minutes” in test [1].

As for `CCOC(=O)[C@H](CCc1ccccc1)N[C@@H](C)C(=O)N1CCC[C@H]1C(=O)O` [Enalapril], in the test with Ryr1^m1Nisw/+ mice [4], the “grip strength (in words)” value is “increased grip strength”. Besides, the “centrally located nuclei / muscle histology (H&E)” value in test [5] was “mild improvement in muscle histology”. In the test with Ryr1^m1Nisw/+ mice [6], the “muscle strength in hanging task (in words)” value was “increased grip strength and muscle strength; also recorded: partial rescue of muscle strength”.

Turning to `COc1ccc(Cl)cc1C(=O)NCCc1ccc(S(=O)(=O)NC(=O)NC2CCCCC2)cc1` [Glibenclamide], the “grip strength (in words)” value in the test on Ryr1^m1Nisw/+ mice [4] is “Increased grip and hanging strength”. In addition, the “VREST phase (in words)” value in the test with soleus muscle (setting [8]) is recorded as “rescued the phase 2 VREST to phase 1”. Further, in the test with soleus muscle (setting [9]), the “VREST phase (in words)” value was “protected against phase 2 shifting from phase 1”. In addition, the “resting membrane potential (in words)” value in test [2] was “normalized the resting membrane potential”. Further, the “centrally located nuclei / muscle histology (H&E)” value in test [5] (listed as Glyburide) is “lack of centrally-located nuclei; also recorded: rescue the clinical and pathological manifestations of CCD; also recorded: significant reduction in the number of internal nuclei”. Besides, in the test with Ryr1^m1Nisw/+ mice [6], the “muscle strength in hanging task (in words)” value was “increased grip strength and muscle strength; also recorded: Increased grip and hanging strength”. For the same compound, in test [1], the “Minutes to Contraction (Stand. Dev)” value was 67 (34) Minutes, the “bath application time after which contractions were elicited” value amounted to 2 h and the explants showing contractions is listed as 50%.

In the case of `[Cl-].[K+]` [KCl], the “contractions / contractility (in words)” value was “failed to contract” in test [3]; “induced bursts of electrical activity and contractions; also recorded: rescued” in test [1].

`CCCCCCCCCCCCCC(=O)O[C@@H]1[C@@H](C)[C@@]2(O)[C@@H](C=C(CO)C[C@]3(O)C(=O)C(C)=C[C@@H]23)[C@@H]2C(C)(C)[C@]12OC(C)=O` [PMA, Phorbol-12-myristate-13-acetate]: in test [2], the “resting membrane potential (in words)” value is recorded as “normalized the membrane potential”, the “resting membrane potential after treatment” value is listed as −67.7 mV and the “shift in membrane potential” value is listed as −18.3+/−5.3 mV. Moreover, in test [3], the “contractions / contractility (in words)” value is on record as “no effect”. Also, in test [1], the “time to contraction after addition” value is at most 5 min, the “Minutes to Contraction (Stand. Dev)” value is 4 (2) Minutes and the “contractions / contractility (in words)” value is “strongly elicited contractions”.

Consider `CCCCNc1cc(C(=O)O)cc(S(N)(=O)=O)c1Oc1ccccc1` [bumetanide], for which the “VREST after drug addition” value with soleus muscle (setting [7]) is reported as −92.3+/−4.8 mV. Moreover, the “VREST phase (in words)” value in the test with soleus muscle (setting [8]) and in the test with soleus muscle (setting [9]) was “driven to phase 1” in each case.

As to `O=C([O-])[C@H](O)[C@@H](O)[C@H](O)[C@H](O)CO.[K+]` [potassium gluconate], in test [1], the “contractions / contractility (in words)” value is listed as “Contractions also transpired”.
